Results published in PubChem BioAssay (NCI).
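Protocol summary: plate cells (96-well), add compound at 5 concentrations, incubate 48 h, interpolate endpoints linearly. Definition used: TGI = concentration required for complete inhibition of growth.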

What follows are molecules tested on PC-3 prostate (assay: DTP human tumour cell line panel, 48 h).

Compound	TGI
COC(=O)CCCC(=O)C(=Nc1c(Cl)cccc1Cl)NNc1ccc(Cl)cc1	> 100 µM
O=[N+]([O-])C(=C(Sc1ccccc1)Sc1ccccc1)C(Cl)=C(Cl)Cl	5.78 µM

Each molecule was assayed on MCF7 breast (assay: DTP human tumour cell line panel, 48 h).

Compound	TGI
COc1cc2c(NCCCCCCO[N+](=O)[O-])ncnc2c(OC)c1OC	71.4 µM
CC(=O)OCC1OC(n2c(=S)[nH]c(-c3ccccc3)c(C#N)c2=O)C(OC(C)=O)C(OC(C)=O)C1OC(C)=O (centres undefined)	> 100 µM
CCOC(=O)c1c(SCCN2CCCC2)n(-c2ccccc2)c(=S)n(-c2ccccc2)c1=O	3.36 µM
COC(=O)CCCC(=O)C(=Nc1c(Cl)cccc1Cl)NNc1ccc(Cl)cc1	> 100 µM
O=[N+]([O-])C(=C(Sc1ccccc1)Sc1ccccc1)C(Cl)=C(Cl)Cl	1.05 µM

The molecules below were run on HL-60(TB) leukemia (assay: DTP human tumour cell line panel, 48 h).

Compound	TGI
O=C1C(Cl)N(c2ccccc2)C1c1c[nH]c2ccccc12 (centres undefined)	> 100 µM
COc1cc2c(NCCCCCCO[N+](=O)[O-])ncnc2c(OC)c1OC	54.8 µM
O=C(O)c1cc(S(=O)(=O)N=NC=C2c3ccccc3N(O)c3ccccc32)ccc1O	23.7 µM
CC(=O)OCC1OC(n2c(=S)[nH]c(-c3ccccc3)c(C#N)c2=O)C(OC(C)=O)C(OC(C)=O)C1OC(C)=O (centres undefined)	> 100 µM
CCOC(=O)c1c(SCCN2CCCC2)n(-c2ccccc2)c(=S)n(-c2ccccc2)c1=O	3.52 µM
COC(=O)CCCC(=O)C(=Nc1c(Cl)cccc1Cl)NNc1ccc(Cl)cc1	> 100 µM
O=[N+]([O-])C(=C(Sc1ccccc1)Sc1ccccc1)C(Cl)=C(Cl)Cl	0.813 µM

Each molecule was assayed on LOX IMVI melanoma (assay: DTP human tumour cell line panel, 48 h).

Compound	TGI
COc1cc2c(NCCCCCCO[N+](=O)[O-])ncnc2c(OC)c1OC	49.3 µM
O=C(O)c1cc(S(=O)(=O)N=NC=C2c3ccccc3N(O)c3ccccc32)ccc1O	26 µM
CC(=O)OCC1OC(n2c(=S)[nH]c(-c3ccccc3)c(C#N)c2=O)C(OC(C)=O)C(OC(C)=O)C1OC(C)=O (centres undefined)	> 100 µM
CCOC(=O)c1c(SCCN2CCCC2)n(-c2ccccc2)c(=S)n(-c2ccccc2)c1=O	3.79 µM
COC(=O)CCCC(=O)C(=Nc1c(Cl)cccc1Cl)NNc1ccc(Cl)cc1	> 100 µM
O=[N+]([O-])C(=C(Sc1ccccc1)Sc1ccccc1)C(Cl)=C(Cl)Cl	1.09 µM

The molecules below were run on HT29 colon (assay: DTP human tumour cell line panel, 48 h).

Compound	TGI
O=C1C(Cl)N(c2ccccc2)C1c1c[nH]c2ccccc12 (centres undefined)	> 100 µM
COc1cc2c(NCCCCCCO[N+](=O)[O-])ncnc2c(OC)c1OC	> 62 µM
O=C(O)c1cc(S(=O)(=O)N=NC=C2c3ccccc3N(O)c3ccccc32)ccc1O	> 100 µM
CC(=O)OCC1OC(n2c(=S)[nH]c(-c3ccccc3)c(C#N)c2=O)C(OC(C)=O)C(OC(C)=O)C1OC(C)=O (centres undefined)	> 100 µM
CCOC(=O)c1c(SCCN2CCCC2)n(-c2ccccc2)c(=S)n(-c2ccccc2)c1=O	11.5 µM
COC(=O)CCCC(=O)C(=Nc1c(Cl)cccc1Cl)NNc1ccc(Cl)cc1	> 100 µM
O=[N+]([O-])C(=C(Sc1ccccc1)Sc1ccccc1)C(Cl)=C(Cl)Cl	0.487 µM

What follows are molecules tested on DU-145 prostate (assay: DTP human tumour cell line panel, 48 h).

Compound	TGI
COc1cc2c(NCCCCCCO[N+](=O)[O-])ncnc2c(OC)c1OC	72.2 µM
CC(=O)OCC1OC(n2c(=S)[nH]c(-c3ccccc3)c(C#N)c2=O)C(OC(C)=O)C(OC(C)=O)C1OC(C)=O (centres undefined)	> 100 µM
CCOC(=O)c1c(SCCN2CCCC2)n(-c2ccccc2)c(=S)n(-c2ccccc2)c1=O	3.11 µM
COC(=O)CCCC(=O)C(=Nc1c(Cl)cccc1Cl)NNc1ccc(Cl)cc1	> 100 µM
O=[N+]([O-])C(=C(Sc1ccccc1)Sc1ccccc1)C(Cl)=C(Cl)Cl	3.43 µM

Each molecule was assayed on U251 CNS (assay: DTP human tumour cell line panel, 48 h).

Compound	TGI
O=C1C(Cl)N(c2ccccc2)C1c1c[nH]c2ccccc12 (centres undefined)	> 100 µM
COc1cc2c(NCCCCCCO[N+](=O)[O-])ncnc2c(OC)c1OC	> 100 µM
O=C(O)c1cc(S(=O)(=O)N=NC=C2c3ccccc3N(O)c3ccccc32)ccc1O	> 100 µM
CC(=O)OCC1OC(n2c(=S)[nH]c(-c3ccccc3)c(C#N)c2=O)C(OC(C)=O)C(OC(C)=O)C1OC(C)=O (centres undefined)	> 100 µM
CCOC(=O)c1c(SCCN2CCCC2)n(-c2ccccc2)c(=S)n(-c2ccccc2)c1=O	16.7 µM
COC(=O)CCCC(=O)C(=Nc1c(Cl)cccc1Cl)NNc1ccc(Cl)cc1	> 100 µM
O=[N+]([O-])C(=C(Sc1ccccc1)Sc1ccccc1)C(Cl)=C(Cl)Cl	4.21 µM

These molecules were tested on SF-268 CNS (assay: DTP human tumour cell line panel, 48 h).

Compound	TGI
O=C1C(Cl)N(c2ccccc2)C1c1c[nH]c2ccccc12 (centres undefined)	> 100 µM
COc1cc2c(NCCCCCCO[N+](=O)[O-])ncnc2c(OC)c1OC	> 100 µM
O=C(O)c1cc(S(=O)(=O)N=NC=C2c3ccccc3N(O)c3ccccc32)ccc1O	34.4 µM
CC(=O)OCC1OC(n2c(=S)[nH]c(-c3ccccc3)c(C#N)c2=O)C(OC(C)=O)C(OC(C)=O)C1OC(C)=O (centres undefined)	> 100 µM
CCOC(=O)c1c(SCCN2CCCC2)n(-c2ccccc2)c(=S)n(-c2ccccc2)c1=O	10.1 µM
COC(=O)CCCC(=O)C(=Nc1c(Cl)cccc1Cl)NNc1ccc(Cl)cc1	> 100 µM
O=[N+]([O-])C(=C(Sc1ccccc1)Sc1ccccc1)C(Cl)=C(Cl)Cl	5.37 µM

These molecules were tested on UACC-62 melanoma (assay: DTP human tumour cell line panel, 48 h).

Compound	TGI
O=C1C(Cl)N(c2ccccc2)C1c1c[nH]c2ccccc12 (centres undefined)	> 100 µM
COc1cc2c(NCCCCCCO[N+](=O)[O-])ncnc2c(OC)c1OC	43.6 µM
O=C(O)c1cc(S(=O)(=O)N=NC=C2c3ccccc3N(O)c3ccccc32)ccc1O	22 µM
